Measurements from patent EP0238060B1, “Cephalosporin derivatives, processes for their preparation and antibacterial agents” (Banyu Pharmaceutical Co., Ltd., priority 1986, dated 1987).
≈ marks a conversion by molar mass, not a printed value. Where two headings read alike, the source gives them in different places.

Assays:
Test in all cases: In vitro antibacterial activity, agar plate dilution method (MIC)
M.luteus ATCC9341 = format: cell-based; conditions: Micrococcus luteus; M.luteus ATCC9341; Mueller Hinton agar, inoculum 10⁶ CFU/ml, 37°C, 16 hours; read-out: Minimum Inhibitory Concentration (MIC: µg/ml)
S.aureus 209P NIHJ-JC1 = format: cell-based; conditions: Staphylococcus aureus; S.aureus 209P NIHJ-JC1; Mueller Hinton agar, inoculum 10⁶ CFU/ml, 37°C, 16 hours; read-out: Minimum Inhibitory Concentration (MIC: µg/ml)
S.marcescens IAM 1184 = format: cell-based; conditions: Serratia marcescens, read-out: Minimum Inhibitory Concentration (MIC: µg/ml)
Ps.aeruginosa AKR17 = format: cell-based; conditions: Pseudomonas aeruginosa; Ps.aeruginosa AKR17; Mueller Hinton agar, inoculum 10⁶ CFU/ml, 37°C, 16 hours; read-out: Minimum Inhibitory Concentration (MIC: µg/ml)
E.coli CSH2 (RK1) = format: cell-based; conditions: Escherichia coli, 16 h, read-out: Minimum Inhibitory Concentration (MIC: µg/ml)
E.coli CSH(RE45) = format: cell-based; conditions: Escherichia coli, 16 h, read-out: Minimum Inhibitory Concentration (MIC: µg/ml)
P.vulgaris HX-19 = format: cell-based; conditions: Proteus vulgaris, HX19; P.vulgaris HX-19; Mueller Hinton agar, inoculum 10⁶ CFU/ml, 37°C, 16 hours; read-out: Minimum Inhibitory Concentration (MIC: µg/ml)
K.pneumoniae No. 42 = format: cell-based; conditions: Klebsiella pneumoniae; K.pneumoniae No. 42 (β-Lactamase-producing strain); Mueller Hinton agar, inoculum 10⁶ CFU/ml, 37°C, 16 hours; read-out: Minimum Inhibitory Concentration (MIC: µg/ml)
K.pneumoniae PCI-602 = format: cell-based; conditions: Klebsiella pneumoniae, PCI602; K.pneumoniae PCI-602; Mueller Hinton agar, inoculum 10⁶ CFU/ml, 37°C, 16 hours; read-out: Minimum Inhibitory Concentration (MIC: µg/ml)
M.morganii GN5407 = format: cell-based; conditions: Morganella morganii; M.morganii GN5407 (β-Lactamase-producing strain); Mueller Hinton agar, inoculum 10⁶ CFU/ml, 37°C, 16 hours; read-out: Minimum Inhibitory Concentration (MIC: µg/ml)
E.cloacae 963 = format: cell-based; conditions: read-out: Minimum Inhibitory Concentration (MIC: µg/ml)
E.coli GN5482 = format: cell-based; conditions: Escherichia coli; E.coli GN5482 (β-Lactamase-producing strain); Mueller Hinton agar, inoculum 10⁶ CFU/ml, 37°C, 16 hours; read-out: Minimum Inhibitory Concentration (MIC: µg/ml)
C.freundii GN346 = format: cell-based; conditions: Citrobacter freundii; C.freundii GN346 (β-Lactamase-producing strain); Mueller Hinton agar, inoculum 10⁶ CFU/ml, 37°C, 16 hours; read-out: Minimum Inhibitory Concentration (MIC: µg/ml)
P.vulgaris No. 33 = format: cell-based; conditions: Proteus vulgaris, read-out: Minimum Inhibitory Concentration (MIC: µg/ml)
S.aureus BB5703 = format: cell-based; conditions: Staphylococcus aureus; S.aureus BB5703; Mueller Hinton agar, inoculum 10⁶ CFU/ml, 37°C, 16 hours; read-out: Minimum Inhibitory Concentration (MIC: µg/ml)
K.oxytoca GN10650 = format: cell-based; conditions: Klebsiella oxytoca, read-out: Minimum Inhibitory Concentration (MIC: µg/ml)
S.epidermidis IAM12012 = format: cell-based; conditions: Staphylococcus epidermidis; S.epidermidis IAM12012; Mueller Hinton agar, inoculum 10⁶ CFU/ml, 37°C, 16 hours; read-out: Minimum Inhibitory Concentration (MIC: µg/ml)
A.calcoaceticus No. 4 = format: cell-based; conditions: Acinetobacter calcoaceticus; A.calcoaceticus No. 4; Mueller Hinton agar, inoculum 10⁶ CFU/ml, 37°C, 16 hours; read-out: Minimum Inhibitory Concentration (MIC: µg/ml)
S.aureus JS1 = format: cell-based; conditions: Staphylococcus aureus; S.aureus JS1 (β-Lactamase-producing strain); Mueller Hinton agar, inoculum 10⁶ CFU/ml, 37°C, 16 hours; read-out: Minimum Inhibitory Concentration (MIC: µg/ml)
S.marcescens No. 16-2 = format: cell-based; conditions: Serratia marcescens, NO.162; S.marcescens No. 16-2 (β-Lactamase-producing strain); Mueller Hinton agar, inoculum 10⁶ CFU/ml, 37°C, 16 hours; read-out: Minimum Inhibitory Concentration (MIC: µg/ml)
E.coli NIHJ JC2 = format: cell-based; conditions: Escherichia coli, NIHJJC2; E.coli NIHJ JC2; Mueller Hinton agar, inoculum 10⁶ CFU/ml, 37°C, 16 hours; read-out: Minimum Inhibitory Concentration (MIC: µg/ml)
Ps.aeruginosa AK 109 = format: cell-based; conditions: Pseudomonas aeruginosa, AK109; Ps.aeruginosa AK 109; Mueller Hinton agar, inoculum 10⁶ CFU/ml, 37°C, 16 hours; read-out: Minimum Inhibitory Concentration (MIC: µg/ml)
E.cloacae Nek 39 = format: cell-based; conditions: Enterobacter cloacae, NEK39; E.cloacae Nek 39 (β-Lactamase-producing strain); Mueller Hinton agar, inoculum 10⁶ CFU/ml, 37°C, 16 hours; read-out: Minimum Inhibitory Concentration (MIC: µg/ml)
Ps.aeruginosa IFO3445 = format: cell-based; conditions: Pseudomonas aeruginosa; Ps.aeruginosa IFO3445; Mueller Hinton agar, inoculum 10⁶ CFU/ml, 37°C, 16 hours; read-out: Minimum Inhibitory Concentration (MIC: µg/ml)
C.freundii GN346/16 = format: cell-based; conditions: Citrobacter freundii; C.freundii GN346/16; Mueller Hinton agar, inoculum 10⁶ CFU/ml, 37°C, 16 hours; read-out: Minimum Inhibitory Concentration (MIC: µg/ml)
Ps.cepacia 23 = format: cell-based, Pseudomonas cepacia; conditions: Burkholderia cepacia; Ps.cepacia 23; Mueller Hinton agar, inoculum 10⁶ CFU/ml, 37°C, 16 hours; read-out: Minimum Inhibitory Concentration (MIC: µg/ml)
Ps.maltophilia GN 12873 = format: cell-based, Pseudomonas maltophilia; conditions: Stenotrophomonas maltophilia, GN12873; Ps.maltophilia GN 12873 (β-Lactamase-producing strain); Mueller Hinton agar, inoculum 10⁶ CFU/ml, 37°C, 16 hours; read-out: Minimum Inhibitory Concentration (MIC: µg/ml)
[1] = IAM1184, S.marcescens IAM 1184, Mueller Hinton agar, inoculum 10⁶ CFU/ml, 37°C, 16 hours
[2] = Enterobacter cloacae, E.cloacae 963, Mueller Hinton agar, inoculum 10⁶ CFU/ml, 37°C, 16 hours
[3] = K.oxytoca GN10650 (β-Lactamase-producing strain), Mueller Hinton agar, inoculum 10⁶ CFU/ml, 37°C, 16 hours

SMILES	MIC (M.luteus ATCC9341) [µg/mL]	MIC (S.aureus 209P NIHJ-JC1) [µg/mL]	MIC (Ps.aeruginosa AKR17) [µg/mL]	MIC (E.coli CSH2 (RK1)) [µg/mL]	MIC (E.coli CSH(RE45)) [µg/mL]	MIC (P.vulgaris HX-19) [µg/mL]	MIC (K.pneumoniae No. 42) [µg/mL]	MIC (K.pneumoniae PCI-602) [µg/mL]	MIC (M.morganii GN5407) [µg/mL]	MIC (E.coli GN5482) [µg/mL]	MIC (C.freundii GN346) [µg/mL]	MIC (S.aureus BB5703) [µg/mL]	MIC (S.epidermidis IAM12012) [µg/mL]	MIC (A.calcoaceticus No. 4) [µg/mL]	MIC (S.aureus JS1) [µg/mL]	MIC (S.marcescens No. 16-2) [µg/mL]	MIC (E.coli NIHJ JC2) [µg/mL]	MIC (Ps.aeruginosa AK 109) [µg/mL]	MIC (E.cloacae Nek 39) [µg/mL]	MIC (Ps.aeruginosa IFO3445) [µg/mL]	further results
Nc1nc(/C(=N/OC2(C(=O)O)CCCC2)C(=O)NC2C(=O)N3C(C(=O)[O-])=C(C[n+]4ccc5cc(O)c(O)cc5c4)CSC23)cs1 (stereo not drawn) [Ex. 5, 7-[2-(2-aminothiazol-4-yl)-2-(l-carboxy-l-cyclopentyloxyimino)acetamido]-3-(6,7-dihydroxy-2-isoquinolinio)methyl-3-cephem-4-carboxylate]	3.12 (≈ 4.77 µM)	25 (≈ 38.2 µM)	0.39 (≈ 0.596 µM)	0.0125 (≈ 0.0191 µM)	0.78 (≈ 1.19 µM)	< 0.006	0.05 (≈ 0.0764 µM)	< 0.006	0.1 (≈ 0.153 µM)	0.2 (≈ 0.305 µM)	50 (≈ 76.4 µM)	50 (≈ 76.4 µM)	6.25 (≈ 9.55 µM)	0.1 (≈ 0.153 µM)	100 (≈ 153 µM)	0.1 (≈ 0.153 µM)	0.05 (≈ 0.0764 µM)	0.39 (≈ 0.596 µM)	< 0.006	0.39 (≈ 0.596 µM)	MIC (S.marcescens IAM 1184; [1]): < 0.006 µg/mL; MIC (E.cloacae 963; [2]): 0.05 µg/mL (≈ 0.0764 µM); MIC (P.vulgaris No. 33; NO.33, 16 h): 0.0125 µg/mL (≈ 0.0191 µM); MIC (K.oxytoca GN10650; GN10650, 16 h): 0.0125 µg/mL (≈ 0.0191 µM); MIC (C.freundii GN346/16): 1.56 µg/mL (≈ 2.38 µM); MIC (Ps.cepacia 23): < 0.006 µg/mL; MIC (Ps.maltophilia GN 12873): 1.56 µg/mL (≈ 2.38 µM)
C=C(O/N=C(\C(=O)NC1C(=O)N2C(C(=O)[O-])=C(C[n+]3ccc4cc(O)c(O)cc4c3)CSC12)c1csc(N)n1)C(=O)O (stereo not drawn) [Ex. 6, 7-[2-(2-aminothiazol-4-yl)-2-(l-carboxy-l-vinyloxyimino)acetamido]-3-(6,7-dihydroxy-2-isoquinolinio)methyl-3-cephem-4-carboxylate]	6.25 (≈ 10.2 µM)	25 (≈ 40.8 µM)	1.56 (≈ 2.55 µM)	0.0125 (≈ 0.0204 µM)	0.025 (≈ 0.0408 µM)	< 0.006	0.025 (≈ 0.0408 µM)	< 0.006	0.05 (≈ 0.0816 µM)	0.2 (≈ 0.326 µM)	50 (≈ 81.6 µM)	50 (≈ 81.6 µM)	12.5 (≈ 20.4 µM)	0.2 (≈ 0.326 µM)	100 (≈ 163 µM)	0.1 (≈ 0.163 µM)	0.1 (≈ 0.163 µM)	0.39 (≈ 0.637 µM)	0.025 (≈ 0.0408 µM)	1.56 (≈ 2.55 µM)	MIC (S.marcescens IAM 1184; IAM1184, 16 h): 0.0125 µg/mL (≈ 0.0204 µM); MIC (E.cloacae 963; Enterobacter cloacae, 963, 16 h): 0.0125 µg/mL (≈ 0.0204 µM); MIC (P.vulgaris No. 33; NO.33, 16 h): 0.0125 µg/mL (≈ 0.0204 µM); MIC (K.oxytoca GN10650; [3]): 0.05 µg/mL (≈ 0.0816 µM); MIC (C.freundii GN346/16): 1.56 µg/mL (≈ 2.55 µM); MIC (Ps.cepacia 23): 0.025 µg/mL (≈ 0.0408 µM); MIC (Ps.maltophilia GN 12873): 25 µg/mL (≈ 40.8 µM)
C#CCON=C(C(=O)NC1C(=O)N2C(C(=O)[O-])=C(C[n+]3ccc4cc(O)c(O)cc4c3)CS[C@H]12)c1csc(N)n1 (stereo partly drawn) [Ex. 7, 7-[2-(2-aminothiazol-4-yl)-2-(2-propynyloxyimino)acetamido]-3-(6,7-dihydroxy-2-isoquinolio)methyl-3-cephem-4-carboxylate]	0.2 (≈ 0.344 µM)	1.56 (≈ 2.69 µM)	100 (≈ 172 µM)	< 0.006	0.05 (≈ 0.0861 µM)	< 0.006	< 0.006	< 0.006	0.05 (≈ 0.0861 µM)	0.78 (≈ 1.34 µM)	50 (≈ 86.1 µM)	6.25 (≈ 10.8 µM)	0.2 (≈ 0.344 µM)	0.2 (≈ 0.344 µM)	50 (≈ 86.1 µM)	1.56 (≈ 2.69 µM)	0.2 (≈ 0.344 µM)	0.78 (≈ 1.34 µM)	0.2 (≈ 0.344 µM)	0.78 (≈ 1.34 µM)	MIC (S.marcescens IAM 1184; [1]): < 0.006 µg/mL; MIC (E.cloacae 963; [2]): 0.0125 µg/mL (≈ 0.0215 µM); MIC (P.vulgaris No. 33; P.vulgaris No. 33 (β-Lactamase-producing strain), Mueller Hinton agar, inoculum 10⁶ CFU/ml, 37°C, 16 hours): 0.05 µg/mL (≈ 0.0861 µM); MIC (K.oxytoca GN10650; [3]): 1.56 µg/mL (≈ 2.69 µM); MIC (C.freundii GN346/16): 0.78 µg/mL (≈ 1.34 µM); MIC (Ps.cepacia 23): 0.1 µg/mL (≈ 0.172 µM); MIC (Ps.maltophilia GN 12873): > 100 µg/mL
